From publication PMC4216216 (Journal of Medicinal Chemistry, 2014)
pIC50: −log10 of the molar value.

Tests used:
HeLa cells = conditions: read-out: cytotoxic IC50 in HeLa cells; cited from earlier work
H3K9me3 in LNCaP cells = experiment: Histone H3 methylation level in LNCaP cells, western blot; type: cell-based
LNCaP cells [1] = experiment: Microarray gene expression in LNCaP cells; type: cell-based; conditions: 50 μM, 3 days
KDM4A [2] = target: T1, KDM4A (Homo sapiens, UniProt O75164)
T1 sequence (O75164 1-347): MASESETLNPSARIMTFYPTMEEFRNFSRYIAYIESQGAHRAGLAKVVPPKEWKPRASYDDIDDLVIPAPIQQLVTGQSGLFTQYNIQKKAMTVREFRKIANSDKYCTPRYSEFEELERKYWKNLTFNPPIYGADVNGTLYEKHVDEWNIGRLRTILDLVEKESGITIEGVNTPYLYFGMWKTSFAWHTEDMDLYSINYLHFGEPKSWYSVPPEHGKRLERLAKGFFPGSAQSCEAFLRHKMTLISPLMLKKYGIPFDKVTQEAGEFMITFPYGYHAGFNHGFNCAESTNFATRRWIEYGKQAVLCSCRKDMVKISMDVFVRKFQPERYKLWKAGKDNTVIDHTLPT

LNCaP cells [3] = conditions: 5–20 μM, over 6 days
PNT2 cells = experiment: PNT2 normal prostate cell growth; conditions: 5–20 μM, over 6 days
RWPE1 = RWPE1 normal prostate cell growth; conditions: 20 μM treatment
KDM4A [4] = target: T1, KDM4A; experiment: Demethylation of calf thymus H3 by KDM4A, western blot; conditions: 10 μM enzyme, 100 μM inhibitor, 5 μM H3, 37 °C, 30 min
KDM4B [5] = target: T2, KDM4B (Homo sapiens, UniProt O94953)
T2 sequence (O94953 1-348): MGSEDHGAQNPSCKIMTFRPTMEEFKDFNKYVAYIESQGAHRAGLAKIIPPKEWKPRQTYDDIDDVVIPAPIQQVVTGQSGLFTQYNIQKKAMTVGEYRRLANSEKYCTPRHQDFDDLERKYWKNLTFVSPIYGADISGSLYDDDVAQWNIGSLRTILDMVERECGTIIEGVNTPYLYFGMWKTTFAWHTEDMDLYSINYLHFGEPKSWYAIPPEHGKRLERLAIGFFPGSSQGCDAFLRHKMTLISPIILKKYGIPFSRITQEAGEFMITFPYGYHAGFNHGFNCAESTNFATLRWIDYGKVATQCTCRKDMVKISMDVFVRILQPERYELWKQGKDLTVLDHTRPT

KDM4B [6] = target: T2, KDM4B; conditions: 10 μM enzyme, 100 μM inhibitor, 5 μM H3, 37 °C, 30 min
cultured cells = conditions: as a prodrug; cited from earlier work

Row | Compound | pIC50 (HeLa cells) | demethylating activity toward H3K9me3 in LNCaP cells (H3K9me3 in LNCaP cells; 5 μM, 24 h) | level of H3K9me3 in LNCaP cells (H3K9me3 in LNCaP cells; 10 µM, 3 days) | signals of H3K4me2, H3K27me3, H3K27me2, H3K36me3, H3K36me2 and H3K79me2 in LNCaP cells (H3K9me3 in LNCaP cells; 10 µM, 3 days, control vs treated) | cellular level of H3K9me3, dose-dependent (H3K9me3 in LNCaP cells; 1–100 μM, 24 h) | expression of oncogenes IGF1R, FGFR3, CCNE2, AURKA and AURKB (LNCaP cells [1]) | expression of tumor suppressors RB1 and CDH1 (LNCaP cells [1]) | inhibitory mode against H3_3–17K9me3, KDM4A (KDM4A [2]) | growth of LNCaP cells (LNCaP cells [3]) | effect on PNT2 cells (PNT2 cells) | growth of RWPE1 cells (RWPE1) | demethylation of histone H3K9me3 and H3K36me3 by KDM4A (KDM4A [4]) | activity (KDM4A [2]) | activity (KDM4B [5]) | demethylation of histone H3K9me3 and H3K36me3 by KDM4B (KDM4B [6]) | cytotoxic IC50 in cultured cells (cultured cells)
1 | O=C(O)c1ccc(O)c2ncccc12 [5-carboxy-8HQ] | 4.06 | – | – | – | – | – | – | – | – | – | – | – | – | – | – | –
2 | O=[N+]([O-])c1cc([N+](=O)[O-])c(/C=C/c2ccc(Cl)c(Cl)c2)cc1/C=C/c1ccc(Cl)c(Cl)c1 [Compound 4, 1,5-bis[(E)-2-(3,4-dichlorophenyl)ethenyl]-2,4-dinitrobenzene] | – | almost completely blocked | significantly increased | essentially comparable signals | notable increase | downregulation | upregulation | competitive | significantly affected | hardly any effect | slightly reduced growth | blocked the demethylation activity | – | – | – | –
3 | O=C(O)c1ccnc(C(=O)O)c1 [Compound 2, pyridine 2,4-dicarboxylic acid] | – | – | – | – | – | – | – | – | – | – | – | blocked the demethylation activity | 21% | 24% | blocked the demethylation activity | millimolar range
